According to US20240270715A1, “INHIBITORS OF TRANSGLUTAMINASES” (ZEDIRA GMBH, priority 2021, published 2024):

Key:
[1] = molecular target: T1, recombinant human transglutaminase 2 (Homo sapiens, UniProt P21980); assay: Transglutaminase assay: incorporation of dansylcadaverine into dimethylcasein (DCC-assay); type: biochemical; conditions: recombinant human TG2 10 nM, dansylcadaverine/dimethylcasein; read-out: IC50 TG2
T1 sequence (P21980 1-687): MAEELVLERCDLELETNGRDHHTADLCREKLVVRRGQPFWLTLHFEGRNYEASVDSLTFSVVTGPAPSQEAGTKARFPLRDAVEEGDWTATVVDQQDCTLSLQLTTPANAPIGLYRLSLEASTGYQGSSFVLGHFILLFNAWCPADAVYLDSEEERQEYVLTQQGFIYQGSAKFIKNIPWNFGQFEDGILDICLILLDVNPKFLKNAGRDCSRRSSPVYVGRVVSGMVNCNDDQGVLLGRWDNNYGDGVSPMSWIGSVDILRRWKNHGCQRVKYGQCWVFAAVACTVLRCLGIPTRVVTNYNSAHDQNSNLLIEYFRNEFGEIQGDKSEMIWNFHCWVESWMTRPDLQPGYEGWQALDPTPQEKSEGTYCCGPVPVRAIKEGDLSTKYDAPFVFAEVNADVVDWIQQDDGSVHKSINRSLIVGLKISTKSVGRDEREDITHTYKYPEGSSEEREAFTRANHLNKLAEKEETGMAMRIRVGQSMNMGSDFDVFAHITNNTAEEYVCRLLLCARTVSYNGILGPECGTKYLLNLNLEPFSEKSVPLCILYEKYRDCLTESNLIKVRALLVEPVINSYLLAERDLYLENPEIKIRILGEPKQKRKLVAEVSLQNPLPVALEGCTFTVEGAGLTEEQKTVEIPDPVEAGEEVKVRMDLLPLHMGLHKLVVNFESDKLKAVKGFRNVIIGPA
How it was run: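 Recombinant human TG2 (10 nM final) incorporates dansylcadaverine (16.7 μM) into N,N-dimethylcasein (4 μM) in Tris-HCl buffer, pH 8.0, with 10 mM CaCl2 and 10 mM glutathione. Fluorescence (λex 330, λem 500 nm) followed 30 min. The slope between 20–30 min gives activity versus DMSO control, and IC50 comes from the concentration–activity plot.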

[2] = Log D by shake flask method (octanol / PBS pH 7.4, HPLC); type: physicochemical; conditions: octanol / PBS pH 7.4, shake flask; read-out: logD
How it was run: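 Shake-flask partitioning of compound between octanol and PBS at pH 7.4, with phase concentrations quantified by HPLC. The value reported is Log D.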

[3] = Caco-2 permeability assay (CacoReady kit); type: in vitro ADME; conditions: human
How it was run: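 Apparent permeability coefficients (Papp) were measured across Caco-2 cell barriers using a ready-to-use kit run per the supplier's protocol. Values serve as a predictor of oral/intestinal bioavailability.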

Row | SMILES | IC50 [1] [nM] | logD [2] | Papp [3] [×10⁻⁶ cm/s]
1 | CCNC(=O)C(=O)CC[C@H](NC(=O)c1cccnc1)C(=O)Nc1cccn(CC(=O)NCCc2ccccc2)c1=O [Ref. 4, reference compound] | 3500 to 10000 | < 1 | < 1
2 | CCNC(=O)C(=O)CC[C@H](NC(=O)c1c(C)ncn1C)C(=O)Nc1cccn(CC(=O)NC23CC4CC(C)(CC(C)(C4)C2)C3)c1=O [Compound I-21, (S)-2-(1,4-dimethyl-1H-imidazole-5-carboxamido)-N6-ethyl-N1-(1-(2-(3,5-dimethyladamantane-1-amino)-2-oxoethyl)-2-oxo-1,2-dihydropyridin-3-yl)-5-oxohexanediamide] | 600 to 3500 | 1 to 3 | < 1
3 | CCNC(=O)C(=O)CC[C@H](NC(=O)c1csnn1)C(=O)Nc1cccn(CC(=O)NC23CC(C2)C3)c1=O [Compound I-117, (S)-N1-(1-(2-(bicyclo[1.1.1]pentan-1-ylamino)-2-oxoethyl)-2-oxo-1,2-dihydropyridin-3-yl)-N6-ethyl-5-oxo-2-(1,2,3-thiadiazole-4-carboxamido)hexanediamide] | 150 to 600 | < 1 | < 1
4 | CCNC(=O)C(=O)CC[C@H](NC(=O)c1ccc2cnccc2n1)C(=O)Nc1cccn(CC(=O)NC2C3CC4CC2CC(CC)(C4)C3)c1=O (stereo partly drawn) [Compound I-106, (S)-N1-ethyl-N6-(1-(2-(5-ethyladamantane-2-amino)-2-oxoethyl)-2-oxo-1,2-dihydropyridin-3-yl)-5-(1,6-naphthyridine-2-carboxamido)-2-oxohexanediamide] | 600 to 3500 | 3 to 5 | < 1
5 | CCNC(=O)C(=O)CC[C@H](NC(=O)c1cn(C2CCC2)cn1)C(=O)Nc1cccn(CC(=O)NC23CC4CC(CC(CC)(C4)C2)C3)c1=O [Compound I-20, (S)-2-(1-cyclobutyl-1H-imidazole-4-carboxamido)-N6-ethyl-N1-(1-(2-(3-ethyladamantane-1-amino)-2-oxoethyl)-2-oxo-1,2-dihydropyridin-3-yl)-5-oxohexanediamide] | 600 to 3500 | 1 to 3 | < 1
6 | CCNC(=O)C(=O)CC[C@H](NC(=O)c1cc2ccccc2n1CC)C(=O)Nc1cccn(CC(=O)NC23CC(C2)C3)c1=O [Compound I-102, (S)-N1-(1-(2-(bicyclo[1.1.1]pentan-1-ylamino)-2-oxoethyl)-2-oxo-1,2-dihydropyridin-3-yl)-N6-ethyl-2-(1-ethyl-1H-indole-2-carboxamido)-5-oxohexanediamide] | 150 to 600 | 1 to 3 | 1 to 10
7 | CCNC(=O)C(=O)CC[C@H](NC(=O)c1sc(C(F)(F)F)nc1Br)C(=O)Nc1cccn(CC(=O)NC2C3CC4CC(C3)CC2C4)c1=O (stereo partly drawn) [Compound I-41, (S)-2-(4-bromo-2-(trifluoromethyl)thiazole-5-carboxamido)-N6-ethyl-N1-(1-(2-(2-adamantylamino)-2-oxoethyl)-2-oxo-1,2-dihydropyridin-3-yl)-5-oxohexanediamide] | < 150 | 1 to 3 | 1 to 10
8 | CCNC(=O)C(=O)CC[C@H](NC(=O)c1oc2ccccc2c1C)C(=O)Nc1cccn(CC(=O)N[C@@H]2C[C@@H]3CC[C@H]2C3)c1=O [Compound I-68, (S)-N1-(1-(2-((1S,2R,4R)-bicyclo[2.2.1]heptan-2-ylamino)-2-oxoethyl)-2-oxo-1,2-dihydropyridin-3-yl)-N6-ethyl-2-(3-methylbenzofuran-2-carboxamido)-5-oxohexanediamide] | < 150 | 1 to 3 | 1 to 10
9 | CCNC(=O)C(=O)CC[C@H](NC(=O)c1cc2cccnc2nc1C)C(=O)Nc1cccn(CC(=O)NC23CC(C2)C3)c1=O [Compound I-103, (S)-N1-(1-(2-(bicyclo[1.1.1]pentan-1-ylamino)-2-oxoethyl)-2-oxo-1,2-dihydropyridin-3-yl)-N6-ethyl-2-(2-methyl-1,8-naphthyridine-3-carboxamido)-5-oxohexanediamide] | 600 to 3500 | < 1 | < 1
10 | CCNC(=O)C(=O)CC[C@H](NC(=O)c1csc2ccccc12)C(=O)Nc1cccn(CC(=O)NC23CCCC4CC(CCC42)C3)c1=O (stereo partly drawn) [Compound I-78, (S)-2-(benzo[b]thiophene-3-carboxamido)-N6-ethyl-N1-(1-(2-(4-homoisotwistane-3-amino)-2-oxoethyl)-2-oxo-1,2-dihydropyridin-3-yl)-5-oxohexanediamide] | 150 to 600 | 3 to 5 | 1 to 10
11 | CCNC(=O)C(=O)CC[C@H](NC(=O)c1cnc(NC(C)=O)s1)C(=O)Nc1cccn(CC(=O)NC23CC(C2)C3)c1=O [Compound I-110, (S)-2-(2-acetamidothiazole-5-carboxamido)-N1-(1-(2-(bicyclo[1.1.1]pentan-1-ylamino)-2-oxoethyl)-2-oxo-1,2-dihydropyridin-3-yl)-N6-ethyl-5-oxohexanediamide] | 600 to 3500 | < 1 | < 1
12 | CCNC(=O)C(=O)CC[C@H](NC(=O)c1ccc2ccoc2c1)C(=O)Nc1cccn(CC(=O)NC2C3CC4CC2CC(C(N)=O)(C4)C3)c1=O (stereo partly drawn) [Compound I-114, (S)-2-(benzofuran-6-carboxamido)-N6-ethyl-N1-(1-(2-(4-aminoadamantane-1-carboxamide)-2-oxoethyl)-2-oxo-1,2-dihydropyridin-3-yl)-5-oxohexanediamide] | 150 to 600 | < 1 | < 1
13 | CCNC(=O)C(=O)CC[C@H](NC(=O)c1cc(Cl)c(Cl)s1)C(=O)Nc1cccn(CC(=O)NC2C3CC4CC(C3)CC2C4)c1=O (stereo partly drawn) [Compound I-54, (S)-2-(4,5-dichlorothiophene-2-carboxamido)-N6-ethyl-N1-(1-(2-(2-adamantylamino)-2-oxoethyl)-2-oxo-1,2-dihydropyridin-3-yl)-5-oxohexanediamide] | < 150 | 3 to 5 | 1 to 10
14 | CCNC(=O)C(=O)CC[C@H](NC(=O)c1nn[nH]n1)C(=O)Nc1cccn(CC(=O)NC2C3CC4CC(C3)CC2C4)c1=O (stereo partly drawn) [Compound I-57, (S)-N1-ethyl-N6-(1-(2-(2-adamantylamino)-2-oxoethyl)-2-oxo-1,2-dihydropyridin-3-yl)-2-oxo-5-(2H-tetrazole-5-carboxamido)hexanediamide] | 600 to 3500 | < 1 | < 1
15 | CCNC(=O)C(=O)CC[C@H](NC(=O)c1snnc1C=O)C(=O)Nc1cccn(CC(=O)NC2C3CC4CC(C3)CC2C4)c1=O (stereo partly drawn) [Compound I-120, (S)-N1-ethyl-5-(4-formyl-1,2,3-thiadiazole-5-carboxamido)-N6-(1-(2-(2-adamantylamino)-2-oxoethyl)-2-oxo-1,2-dihydropyridin-3-yl)-2-oxohexanediamide] | 150 to 600 | < 1 | < 1
16 | CCNC(=O)C(=O)CC[C@H](NC(=O)[C@@H]1CN2CCN1CC2)C(=O)Nc1cccn(CC(=O)NC2C3CC4CC(C3)CC2C4)c1=O (stereo partly drawn) [Compound I-94, (S)-2-((S)-1,4-diazabicyclo[2.2.2]octane-2-carboxamido)-N6-ethyl-N1-(1-(2-(2-adamantylamino)-2-oxoethyl)-2-oxo-1,2-dihydropyridin-3-yl)-5-oxohexanediamide] | 600 to 3500 | 1 to 3 | < 1
